Each structure is given as a SMILES string. Where only a bound is given, the exact number is not on record here.

In assay [1] the target is 5-hydroxytryptamine receptor 1D (Homo sapiens, UniProt P28221). The assay is described as follows: GPCRScan assay: inhibition of 5-HT1D. Further details: radioligand conc. used [nm] 1.0 – 2.0, parental cells HEKT.
For assay [2], the target named is 5-hydroxytryptamine receptor 2A (Homo sapiens, UniProt P28223). The assay is described as follows: GPCRScan assay: inhibition of 5-HT2A. Further details: radioligand conc. used [nm] 1.2 – 2.4, parental cells HEKT.
Chain of 5-hydroxytryptamine receptor 2A (P28223 whole entry): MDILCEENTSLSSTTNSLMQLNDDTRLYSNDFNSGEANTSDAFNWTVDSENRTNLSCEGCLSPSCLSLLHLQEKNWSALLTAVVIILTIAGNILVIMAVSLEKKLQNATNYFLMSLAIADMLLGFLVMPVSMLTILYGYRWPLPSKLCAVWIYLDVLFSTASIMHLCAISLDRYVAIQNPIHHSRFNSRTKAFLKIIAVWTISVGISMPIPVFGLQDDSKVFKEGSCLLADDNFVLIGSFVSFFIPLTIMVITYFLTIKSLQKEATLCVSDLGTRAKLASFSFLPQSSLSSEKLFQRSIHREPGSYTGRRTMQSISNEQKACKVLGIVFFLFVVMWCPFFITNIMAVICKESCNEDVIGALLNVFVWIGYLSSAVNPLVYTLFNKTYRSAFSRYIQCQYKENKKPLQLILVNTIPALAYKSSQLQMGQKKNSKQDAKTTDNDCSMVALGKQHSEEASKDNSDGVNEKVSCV
The next assay concerns the target D(2) dopamine receptor (Homo sapiens, UniProt P14416). In words: GPCRScan assay: inhibition of D2. More on the design: radioligand conc. used [nm] 0.4 – 1.0, parental cells stable fibroblast.
For assay [3], the target named is Alpha-2C adrenergic receptor (Homo sapiens, UniProt P18825). The assay is described as follows: GPCRScan assay: inhibition of Alpha2C. Further details: radioligand conc. used [nm] 0.5 – 1.0, parental cells stable MDCK.
Chain of Alpha-2C adrenergic receptor (P18825 whole entry): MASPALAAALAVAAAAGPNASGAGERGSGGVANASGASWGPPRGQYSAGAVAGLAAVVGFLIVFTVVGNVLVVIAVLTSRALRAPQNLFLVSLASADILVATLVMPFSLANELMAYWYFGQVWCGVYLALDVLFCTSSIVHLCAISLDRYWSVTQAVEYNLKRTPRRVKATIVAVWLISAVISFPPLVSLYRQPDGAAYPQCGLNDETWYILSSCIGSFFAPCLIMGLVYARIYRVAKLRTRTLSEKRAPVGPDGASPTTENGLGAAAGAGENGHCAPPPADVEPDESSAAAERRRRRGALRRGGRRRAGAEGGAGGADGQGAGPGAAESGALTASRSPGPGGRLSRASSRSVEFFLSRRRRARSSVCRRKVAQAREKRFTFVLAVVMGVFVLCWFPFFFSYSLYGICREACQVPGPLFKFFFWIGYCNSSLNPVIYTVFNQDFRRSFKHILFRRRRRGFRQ
Assay [4] concerns the target Sigma intracellular receptor 2 (Homo sapiens, UniProt Q5BJF2). In words: GPCRScan assay: inhibition of Sigma 2. Further details: radioligand conc. used [nm] 5.0, parental cells HEKT.
Assay [5] concerns the target 5-hydroxytryptamine receptor 6 (Homo sapiens) (UniProt P50406). Conditions: Compound concentration 10.0 uM.
The target of assay [6] is Muscarinic acetylcholine receptor M1 (Homo sapiens) (UniProt P11229). The conditions noted are these: Compound concentration 10.0 uM.
The target in assay [7] is SRSF protein kinase 1 (Homo sapiens) (UniProt Q96SB4). The assay is described as follows: SRPK1 Kinase activity screen.
Chain of SRSF protein kinase 1 (Homo sapiens) (Q96SB4 whole entry): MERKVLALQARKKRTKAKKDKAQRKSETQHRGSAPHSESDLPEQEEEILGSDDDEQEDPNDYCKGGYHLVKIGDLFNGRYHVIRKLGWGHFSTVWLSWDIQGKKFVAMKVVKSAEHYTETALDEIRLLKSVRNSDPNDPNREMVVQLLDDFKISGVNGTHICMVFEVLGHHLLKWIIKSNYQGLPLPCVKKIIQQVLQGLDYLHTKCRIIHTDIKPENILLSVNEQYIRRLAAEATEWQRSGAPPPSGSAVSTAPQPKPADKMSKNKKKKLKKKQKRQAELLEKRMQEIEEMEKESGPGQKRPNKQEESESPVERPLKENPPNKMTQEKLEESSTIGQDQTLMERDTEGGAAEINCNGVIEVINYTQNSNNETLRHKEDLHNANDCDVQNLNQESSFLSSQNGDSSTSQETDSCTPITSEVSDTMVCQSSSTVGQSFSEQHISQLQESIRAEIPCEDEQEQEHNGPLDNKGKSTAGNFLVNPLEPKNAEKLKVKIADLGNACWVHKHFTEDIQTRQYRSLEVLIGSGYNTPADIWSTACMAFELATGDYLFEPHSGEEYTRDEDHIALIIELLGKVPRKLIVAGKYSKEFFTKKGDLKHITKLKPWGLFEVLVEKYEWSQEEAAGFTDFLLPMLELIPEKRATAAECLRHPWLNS
Assay [8] deals with Tyrosine-protein kinase ABL1 (Homo sapiens) (UniProt P00519). The assay is described as follows: ABL1 Kinase activity screen.
Chain of Tyrosine-protein kinase ABL1 (Homo sapiens) (P00519 whole entry): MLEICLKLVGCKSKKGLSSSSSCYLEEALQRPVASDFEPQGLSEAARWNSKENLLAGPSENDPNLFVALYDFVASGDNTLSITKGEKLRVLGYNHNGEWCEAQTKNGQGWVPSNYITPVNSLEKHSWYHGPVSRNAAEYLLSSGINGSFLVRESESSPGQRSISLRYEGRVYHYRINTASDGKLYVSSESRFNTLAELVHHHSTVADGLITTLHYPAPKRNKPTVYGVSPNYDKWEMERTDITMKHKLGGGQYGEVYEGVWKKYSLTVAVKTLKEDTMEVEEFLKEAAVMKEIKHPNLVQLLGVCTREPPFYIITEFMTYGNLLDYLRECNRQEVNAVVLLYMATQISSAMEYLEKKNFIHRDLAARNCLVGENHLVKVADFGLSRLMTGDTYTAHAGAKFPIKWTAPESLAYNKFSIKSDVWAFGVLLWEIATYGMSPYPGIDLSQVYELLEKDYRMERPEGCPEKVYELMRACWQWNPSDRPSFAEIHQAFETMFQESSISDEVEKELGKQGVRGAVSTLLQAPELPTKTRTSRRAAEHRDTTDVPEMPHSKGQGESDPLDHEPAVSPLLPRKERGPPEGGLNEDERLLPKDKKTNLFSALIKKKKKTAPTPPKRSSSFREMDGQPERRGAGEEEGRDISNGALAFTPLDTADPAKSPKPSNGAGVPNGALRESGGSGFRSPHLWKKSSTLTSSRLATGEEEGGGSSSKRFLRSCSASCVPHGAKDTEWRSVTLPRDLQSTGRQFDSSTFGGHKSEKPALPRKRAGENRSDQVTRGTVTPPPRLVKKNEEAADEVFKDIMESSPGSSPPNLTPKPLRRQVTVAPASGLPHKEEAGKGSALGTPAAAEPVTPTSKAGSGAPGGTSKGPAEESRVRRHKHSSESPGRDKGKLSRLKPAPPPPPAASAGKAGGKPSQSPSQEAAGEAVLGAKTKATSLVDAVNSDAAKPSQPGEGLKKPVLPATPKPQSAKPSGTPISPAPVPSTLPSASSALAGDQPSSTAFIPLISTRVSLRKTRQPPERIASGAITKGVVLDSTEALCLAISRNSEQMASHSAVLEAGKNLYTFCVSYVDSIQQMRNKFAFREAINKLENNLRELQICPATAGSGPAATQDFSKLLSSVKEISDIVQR
In assay [9] the target is Cyclin-dependent kinase 5/CDK5 activator 1 (Homo sapiens) (UniProt Q00535+Q15078). In words: CDK5/p25 Kinase activity screen. It counts as protein-complex assay.
Chain of Cyclin-dependent kinase 5/CDK5 activator 1 (Homo sapiens) (Q00535 whole entry, canonical isoform): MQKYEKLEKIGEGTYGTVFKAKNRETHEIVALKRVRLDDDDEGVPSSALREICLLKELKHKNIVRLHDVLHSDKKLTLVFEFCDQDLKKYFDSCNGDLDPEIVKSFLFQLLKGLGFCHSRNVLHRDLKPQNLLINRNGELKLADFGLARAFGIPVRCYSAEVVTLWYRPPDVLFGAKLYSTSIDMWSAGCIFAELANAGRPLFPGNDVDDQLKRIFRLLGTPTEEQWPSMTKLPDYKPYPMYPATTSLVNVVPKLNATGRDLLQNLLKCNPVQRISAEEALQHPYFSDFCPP
Chain of Cyclin-dependent kinase 5/CDK5 activator 1 (Homo sapiens) (Q15078 99-307 partner limits assumed): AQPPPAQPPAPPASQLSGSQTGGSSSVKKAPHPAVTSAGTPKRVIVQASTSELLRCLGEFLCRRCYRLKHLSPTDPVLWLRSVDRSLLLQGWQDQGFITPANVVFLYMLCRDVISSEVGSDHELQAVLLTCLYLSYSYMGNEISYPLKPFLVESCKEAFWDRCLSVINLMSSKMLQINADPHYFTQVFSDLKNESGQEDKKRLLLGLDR
The target of assay [10] is Casein kinase I isoform delta (Homo sapiens) (UniProt P48730). In words: CSNK1D (CK1 delta) Kinase activity screen.
In assay [11] the target is Ephrin type-A receptor 1 (Homo sapiens) (UniProt P21709). In words: EPHA1 Kinase activity screen.
In assay [12] the target is Fibroblast growth factor receptor 1 (Homo sapiens) (UniProt P11362). The assay is described as follows: FGFR1 Kinase activity screen.
Assay [13] concerns the target Dual specificity mitogen-activated protein kinase kinase 1 (Homo sapiens) (UniProt Q02750). In words: MAP2K1 (MEK1) Kinase activity screen.
Assay [14] addresses Mitogen-activated protein kinase 14 (Homo sapiens) (UniProt Q16539). In words: MAPK14 (p38 alpha) Kinase activity screen.
Assay [15] deals with Serine/threonine-protein kinase pim-1 (Homo sapiens) (UniProt P11309). The assay is described as follows: PIM1 Kinase activity screen.
Chain of Serine/threonine-protein kinase pim-1 (Homo sapiens) (P11309 whole entry, looked up): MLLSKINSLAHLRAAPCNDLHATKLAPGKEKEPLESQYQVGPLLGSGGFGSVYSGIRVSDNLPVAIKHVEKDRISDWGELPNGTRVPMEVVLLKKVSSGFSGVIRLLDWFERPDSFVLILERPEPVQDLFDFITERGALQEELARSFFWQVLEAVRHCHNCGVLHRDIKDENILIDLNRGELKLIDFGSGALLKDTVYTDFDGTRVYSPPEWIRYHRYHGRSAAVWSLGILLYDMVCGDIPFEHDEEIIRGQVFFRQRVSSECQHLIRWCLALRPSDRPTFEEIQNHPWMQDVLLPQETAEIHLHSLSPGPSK
The target of assay [16] is Protein kinase C theta type (Homo sapiens) (UniProt Q04759). In words: PRKCQ (PKC theta) Kinase activity screen.
Chain of Protein kinase C theta type (Homo sapiens) (Q04759 whole entry, looked up): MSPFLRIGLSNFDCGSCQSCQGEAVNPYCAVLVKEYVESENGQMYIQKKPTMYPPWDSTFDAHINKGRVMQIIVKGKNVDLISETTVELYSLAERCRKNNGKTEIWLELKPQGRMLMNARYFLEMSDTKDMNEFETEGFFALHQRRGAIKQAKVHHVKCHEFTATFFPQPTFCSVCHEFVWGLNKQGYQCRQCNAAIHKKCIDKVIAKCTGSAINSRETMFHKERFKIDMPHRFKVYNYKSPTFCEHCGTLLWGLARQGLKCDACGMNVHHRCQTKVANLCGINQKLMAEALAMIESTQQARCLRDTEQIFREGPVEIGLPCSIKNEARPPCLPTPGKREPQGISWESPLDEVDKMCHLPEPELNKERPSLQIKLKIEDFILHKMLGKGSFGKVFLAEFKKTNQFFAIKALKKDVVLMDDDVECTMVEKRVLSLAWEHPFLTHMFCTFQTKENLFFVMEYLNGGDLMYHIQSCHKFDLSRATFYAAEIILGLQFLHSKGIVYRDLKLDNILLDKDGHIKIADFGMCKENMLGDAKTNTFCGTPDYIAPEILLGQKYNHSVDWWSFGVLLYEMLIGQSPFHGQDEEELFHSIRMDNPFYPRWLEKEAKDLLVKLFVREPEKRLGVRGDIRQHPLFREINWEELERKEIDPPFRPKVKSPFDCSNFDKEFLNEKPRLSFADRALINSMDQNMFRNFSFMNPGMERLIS

Chain of 5-hydroxytryptamine receptor 1D (P28221 whole entry): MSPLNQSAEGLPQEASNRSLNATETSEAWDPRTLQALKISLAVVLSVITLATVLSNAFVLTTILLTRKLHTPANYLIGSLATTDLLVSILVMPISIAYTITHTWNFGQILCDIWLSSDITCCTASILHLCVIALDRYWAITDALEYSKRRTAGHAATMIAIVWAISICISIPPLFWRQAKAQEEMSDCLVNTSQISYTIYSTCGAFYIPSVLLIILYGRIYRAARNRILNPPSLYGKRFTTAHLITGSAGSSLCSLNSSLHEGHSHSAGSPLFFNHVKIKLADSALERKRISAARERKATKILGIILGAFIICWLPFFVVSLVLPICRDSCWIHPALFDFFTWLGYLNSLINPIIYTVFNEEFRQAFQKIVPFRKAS
Chain of Mitogen-activated protein kinase 14 (Homo sapiens) (Q16539 whole entry): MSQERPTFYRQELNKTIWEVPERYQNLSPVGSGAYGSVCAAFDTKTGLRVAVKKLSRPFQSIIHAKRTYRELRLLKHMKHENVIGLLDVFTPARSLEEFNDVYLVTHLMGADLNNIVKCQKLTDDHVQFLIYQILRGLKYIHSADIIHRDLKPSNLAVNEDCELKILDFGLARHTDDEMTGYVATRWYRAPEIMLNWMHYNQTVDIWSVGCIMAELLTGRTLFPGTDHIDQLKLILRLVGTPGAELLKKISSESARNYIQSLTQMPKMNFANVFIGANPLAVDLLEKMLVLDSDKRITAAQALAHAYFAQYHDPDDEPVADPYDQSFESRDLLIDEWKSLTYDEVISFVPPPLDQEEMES

Broadly, the pKi is the Ki on a negative log10 scale, so that one unit is a factor of ten. By inhibition is commonly meant the drop in the measured response relative to a control, in per cent. As for `CN1CCN(C(=O)C(C)(C)c2ccc(C(=O)Nc3cn4cc(-c5cc(C(C)(C)C)cc(C(C)(C)C)c5)ccc4n3)cc2)CC1` [T3-CLK-N], the Ki in [1] (read-out: Ki) was 3.07 µM; in assay [1] (read-out: pKi (converted)), 2.82 µM; in assay [2] (read-out: Ki), 1.53 µM; in assay [2] (read-out: pKi (converted)), 1.32 µM; at D(2) dopamine receptor (read-out: Ki), 2.75 µM; at D(2) dopamine receptor (read-out: pKi (converted)), 2.34 µM. The results for the Ki in assay [3] and in assay [4] were > 10 µM and 0.412 µM, respectively. For the same compound, the negative logarithm of the Ki (pKi) in assay [3] is < 5. The inhibition in assay [5] is 30.8%; in assay [6] it was 68.3%.
Turning to `CN1CCN(C(=O)C(C)(C)c2ccc(C(=O)Nc3cn4cc(-c5ccncc5)ccc4n3)cc2)CC1` [T3-CLK], the inhibition in assay [7] (Compound concentration 0.123 uM) was -3.09%; in [7] (Compound concentration 1.11 uM), -2.58%; in assay [8] (Compound concentration 0.1 uM) it was 10.1%; in assay [8] (Compound concentration 1.0 uM) it was 55.7%; in assay [9] (Compound concentration 0.1 uM) it was 1.84%; in [9] (Compound concentration 1.0 uM) it was 0.79%. In addition, the inhibition in assay [10] (Compound concentration 0.1 uM) was -2.92%; in [10] (Compound concentration 1.0 uM), 4.31%; in assay [11] (Compound concentration 0.1 uM) it was -1.64%; in [11] (Compound concentration 1.0 uM), -0.564%; in [12] (Compound concentration 0.1 uM), 4.26%; in [12] (Compound concentration 1.0 uM), 9.19%. In addition, the inhibition in [13] (Compound concentration 0.1 uM) was 12.4%; in assay [13] (Compound concentration 1.0 uM), 10.9%; in assay [14] (Compound concentration 0.1 uM), 4.88%; in [14] (Compound concentration 1.0 uM), 6.39%; in [15] (Compound concentration 0.1 uM), 15.6%; in assay [15] (Compound concentration 1.0 uM), 11.3%. For the same compound, the inhibition is 5.46% in assay [16] (Compound concentration 0.1 uM) and 4.24% in [16] (Compound concentration 1.0 uM).

Values taken from ChEMBL document CHEMBL4507307 (2021).
